Values after ≈ are worked out from the molar mass of the structure shown. Values joined by “and” are separate entries in the source; they are usually repeats but may differ in a detail not shown here. Equal entries are not always repeated. “Also recorded” adds a separate entry of the source.

For data set [1] the following is noted: disclosed in WO2017066775A1, cited from earlier work.
Data set [2] is described as follows: Compressibility (tablet hardness, tensile strength). It counts as physicochemical. As for the experimental part:
An ENERPAC manual tablet press was used for compression. 80 mg of Form CSI of the present disclosure and prior art Form C were weighed and added into the dies of a round tooling (ensuring the isotropy of tables), compressed at 10 KN manually, and then stored at room temperature for 24 h until complete elastic recovery. Hardness (H) was tested with an intelligent tablet hardness tester. Diameter (D) and thickness (L) were tested with a caliper. […] Under a certain force, the greater the tensile strength, the better the compressibility.

Data set [3] is described as follows: In vitro dissolution of drug product (tablet) in pH 6.8 PBS. To be noted: for Cumulative dissolution: drug product of example 16, 30 mg, 37° C., paddle 75 rpm. Format: physicochemical.
The conditions of data set [4]: FaSSIF (pH 6.5, 37° C.); disclosed in WO2017066775A1; cited from earlier work.
A short description of data set [5]: Intrinsic dissolution rate in pH 6.8 PBS. Format: physicochemical. To be noted: for IDR / Cumulative dissolution: 37° C.; for Cumulative dissolution: 100 rpm; for Slope: regression line of data within 8-15 minutes. As for the experimental part:
(§1) Solubility measurement for solubility, dissolution, and intrinsic dissolution rate in PBS in the present disclosure:
The whole pellet was transferred to a dissolution apparatus to test the intrinsic dissolution rate. The slope (in μg/min) of the regression line was calculated according to the data within 8-15 minutes. Intrinsic dissolution rate (IDR) was further calculated according to the slope (in μg/min/cm^2).

A short description of data set [6]: Particle size distribution. Format: physicochemical. To be noted: wet mode, Isopar G, after 30 seconds of ultrasound. The procedure: The particle size distribution data in the present disclosure were acquired by a Mastersizer 3000 laser particle size analyzer of Malvern. The test is carried out in wet mode by Hydro MV dispersing device, and the dispersion medium is Isopar G. The method parameters of the laser particle size analyzer are as follows:
The mixture was mixed thoroughly and transferred into the Hydro MV dispersing device. The experiment started when the obscuration is in an appropriate range. The particle size distribution was tested after 30 seconds of ultrasound. The particle size distribution (PSD) patterns are substantially as depicted in FIG. 15 (Form CSI) and FIG. 16 (Form C).

A short description of data set [7]: Mechanical stability (tableting, grinding; XRPD). Format: physicochemical. As for the experimental part: 20 mg of Form CSI was weighed into the die of 16 mm round tooling (IDR punch), and tableted by ENERPAC manual tablet press with 3 kN, 7 kN, and 14 kN pressure.
A small amount of Form CSI was grounded manually for 5 minutes in a mortar.

The nature of data set [8]: Storage stability of drug substance (XRPD before and after storage). To be noted: for Solid Form after storage: sealed. Format: physicochemical. The procedure: Solid samples of Form CSI in the present disclosure were sealed and stored under different conditions of 4° C., 25° C./60% RH, 40° C./75% RH, and 60° C./75% RH. Crystalline form was checked by XRPD before and after storage.

Data set [9] in a line: Kinetic solubility in pH7.4 PBS, FaSSIF and FeSSIF. It counts as physicochemical. The following applies: for solubility at 24 h / solubility at 34 h / solubility at 48 h: thermodynamic from solid. The procedure:
Solubility measurement for freebase content in upadacitinib freebase acetic acid solvate of the present disclosure. Solubility measurement for upadacitinib freebase acetic acid solvate of the present disclosure in FaSSIF and FeSSIF:
as §1
The solubility of Form C was disclosed in WO2017066775A1. In order to have a comparison with Form C, solubility of Form CSI was measured. Saturated solutions of Form CSI of the present disclosure were prepared with pH7.4 PBS, pH6.5 FaSSIF and pH5.0 FeSSIF at 25° C. or 37° C. After equilibration for 24 h, 34 h and 48 h, the saturated solutions were obtained by filtration. The concentrations of compound I in the saturated solutions were measured by high performance liquid chromatography (HPLC) and the results are listed in Table 8.

Data set [10] in a line: Crystalline form before and after formulation process (XRPD). Format: physicochemical. The text has this:
Form CSI of the present disclosure was made into tablet according to the formulation in Table 15 and process in Table 16. Crystalline forms before and after formulation were checked by XRPD, and the XRPD pattern overlay is substantially as depicted in FIG. 17.
Crystalline forms before and after formulation were checked by XRPD, and the comparison of XRPD patterns are substantially as depicted in FIG. 18.

[11] abbreviates: grounded manually for 5 minutes in a mortar.
Where [12] appears, read: PBS pH 7.4, aqueous buffer, pH 7.4 PBS, 25° C.

As to `CC[C@@H]1CN(C(=O)NCC(F)(F)F)C[C@@H]1c1cnc2cnc3[nH]ccc3n12` [Form A], in data set [1], the Crystallinity and stability entry is “poor crystallinity and stability”; the Dehydration entry is reported as “can be easily dehydrated to form amorphous”.

Turning to `CC[C@@H]1CN(C(=O)NCC(F)(F)F)C[C@@H]1c1cnc2cnc3[nH]ccc3n12` [Form C in WO2017066775A1, (3S,4R)-3-ethyl-4-(3H-imidazo[1,2-a]pyrrolo[2,3-e]pyrazine-8-yl)-N-(2,2,2-trifluoroethyl) pyrrolidine-1-carboxamide, reference compound], in data set [2] (80 mg compressed at 10 KN), the Mean tensile strength was found to be 0.69 MPa. Also, the Cumulative dissolution in data set [3] (0 min) came out at 0.0%; in [3] (5 min) it was 22.7%; in [3] (10 min) it was 32.6%; in data set [3] (15 min) it was 39.2%; in data set [3] (20 min), 44.4%; in data set [3] (30 min), 51.5%. The Cumulative dissolution in [3] (45 min) was 59.5%; in data set [3] (60 min), 65.2%; in [5] (8 min), 94.7 µg; in data set [5] (10 min), 207.4 µg; in data set [5] (15 min), 388.1 µg. The Solubility in [4] is 220 µg/mL (≈ 0.578 mM). The molecule further had an IDR in [5] of 81.6204 μg/min/cm^2. Besides, the Slope in [5] worked out at 40.8102 µg/min.

On to `CC[C@@H]1CN(C(=O)NCC(F)(F)F)C[C@@H]1c1cnc2cnc3[nH]ccc3n12` [Form CSI, (3S,4R)-3-ethyl-4-(3H-imidazo[1,2-a]pyrrolo[2,3-e]pyrazine-8-yl)-N-(2,2,2-trifluoroethyl) pyrrolidine-1-carboxamide], for which the “Particle size distribution compared with Form C in WO2017066775A1” value in data set [6] is recorded as “more uniform particle size distribution”. In addition, the Mean tensile strength in data set [2] (80 mg compressed at 10 KN) came out at 1.53 MPa. Moreover, the Hardness in [2] (80 mg compressed at 10 KN, tablets No. 1-3) was 3.53 kgf and 3.06 kgf and 3.43 kgf. Also, in data set [2] (80 mg compressed at 10 KN, tablets No. 1-3, T=2H/πDL*9.8), the Tensile strength was 1.57 MPa and 1.43 MPa and 1.58 MPa. Moreover, in data set [2] (compressed at 10 KN), the “Compressibility compared with Form C” value is “better compressibility than Form C in WO2017066775A1”. Also, the “Crystalline state after tableting” value in data set [7] (3 kN, 7 kN, and 14 kN pressure) was “does not change”. In data set [7] (3 kN, 7 kN, and 14 kN pressure), the Crystallinity after tableting entry is reported as “remains substantially unchanged”. The “Crystalline state after grinding” value in data set [7] (setting [11]) was “does not change; also recorded: remains unchanged after grinding”. For the same molecule, the Crystallinity after grinding result in [7] (setting [11]) is “remains substantially unchanged”. Also, the “Time the crystalline form kept stable” value in data set [8] (4° C.) was “at least 6 months”. Besides, the “Chemical purity during storage” value in data set [8] (4° C., 40° C./75% RH and 60° C./75% RH) was “remains substantially unchanged”; in data set [8] (25° C./60% RH), “remains substantially unchanged”. Besides, the “Solid Form after storage” value is “Form CSI” in data set [8] (4° C., 6 months); “Form CSI” in data set [8] (25° C./60% RH, 6 months); “Form CSI” in [8] (40° C./75% RH, 2 weeks); “Form CSI” in data set [8] (60° C./75% RH, 2 weeks). Moreover, the solubility at 24 h in data set [9] (setting [12]) worked out at 790 µg/mL (≈ 2.08 mM); in data set [9] (FaSSIF (pH 6.5, 37° C.)), 3800 µg/mL (≈ 9.99 mM); in data set [9] (FeSSIF (pH 5.0, 37° C.)) it was 3100 µg/mL (≈ 8.15 mM). The solubility at 34 h in [9] (setting [12]) came to 710 µg/mL (≈ 1.87 mM); in [9] (FaSSIF (pH 6.5, 37° C.)), 4100 µg/mL (≈ 10.8 mM); in data set [9] (FeSSIF (pH 5.0, 37° C.)), 3000 µg/mL (≈ 7.89 mM). The solubility at 48 h in [9] (setting [12]) was found to be 660 µg/mL (≈ 1.74 mM); in data set [9] (FaSSIF (pH 6.5, 37° C.)), 4100 µg/mL (≈ 10.8 mM); in data set [9] (FeSSIF (pH 5.0, 37° C.)), 3100 µg/mL (≈ 8.15 mM). Moreover, the “Solubility compared with Form C” value in data set [9] (pH7.4 PBS, pH6.5 FaSSIF and pH5.0 FeSSIF) is given as “higher than that of Form C”. Further, in [3], the “Dissolution rate of drug product compared with Form C” value was “obviously better than that of Form C in WO2017066775A1”. The Cumulative dissolution in [3] (0 min) is listed as 0.0%; in data set [3] (5 min) it was 28.7%; in [3] (10 min) it was 46.4%; in [3] (15 min), 53.6%; in data set [3] (20 min), 57.5%; in data set [3] (30 min) it was 61.3%. In addition, the Cumulative dissolution in [3] (45 min) turned out to be 64.9%; in data set [3] (60 min), 67.3%; in data set [5] (8 min), 746.1 µg; in data set [5] (10 min), 1458.8 µg; in data set [5] (15 min), 3087.0 µg. Besides, the “Physical stability before and after formulation process” value in [10] (tablet of Example 15 (Table 15, Table 16)) is “good physical stability”. Further, the “Crystalline form after formulation process” value in [10] (tablet of Example 16 (Table 17, Table 18)) is on record as “remains unchanged”. Besides, the IDR in data set [5] was found to be 665.4630 μg/min/cm^2. Besides, the Slope in data set [5] was determined as 332.7315 µg/min.

Turning to `CC[C@@H]1CN(C(=O)NCC(F)(F)F)C[C@@H]1c1cnc2cnc3[nH]ccc3n12` [Form D], in [1] (high water activity), the Form conversion result is “will convert to Form C”.

Usually Solubility stands for how much of the substance goes into solution per volume. As a reminder, the solubility is the dissolved amount per volume that the medium holds. Low values mean little dissolved substance, high ones much dissolved substance.

The values are drawn from patent US20220002306A1, “CRYSTAL FORM OF UPADACITINIB AND PREPARATION METHOD AND USE THEREOF” (CRYSTAL PHARMACEUTICAL (SUZHOU) CO., LTD., priority 2018, published 2022).
